From US20250171437A1 (Agios Pharmaceuticals,Inc., priority 2022, published 2025)

molecular target: T1, human PAH with the R408W mutation (A375 R408W cells) (Homo sapiens, UniProt P00439, R408W); experiment: Cell Based Phenylalanine Flux Assay; details: A375 R408W cells; 24 hrs with compound, then 20 μM sepiapterin and 800 μM 13C9,15N-Phenylalanine for 4 hours; 13C-Tyrosine by LC-MS; average where tested multiple times
T1 construct: expressed in transfected cells
T1 sequence (P00439 1-452 R408W): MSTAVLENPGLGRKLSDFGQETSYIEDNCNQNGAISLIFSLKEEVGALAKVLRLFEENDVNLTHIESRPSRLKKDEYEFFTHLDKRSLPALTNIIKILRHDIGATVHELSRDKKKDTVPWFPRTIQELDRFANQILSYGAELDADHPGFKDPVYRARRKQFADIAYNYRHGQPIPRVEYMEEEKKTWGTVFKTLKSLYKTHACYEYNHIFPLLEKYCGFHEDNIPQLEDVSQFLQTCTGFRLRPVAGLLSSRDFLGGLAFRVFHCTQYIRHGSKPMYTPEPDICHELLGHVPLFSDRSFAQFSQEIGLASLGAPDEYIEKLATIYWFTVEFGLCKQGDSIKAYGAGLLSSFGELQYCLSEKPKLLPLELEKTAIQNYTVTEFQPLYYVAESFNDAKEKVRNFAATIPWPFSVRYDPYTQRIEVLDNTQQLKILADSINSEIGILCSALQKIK
Outline: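 Puromycin-selected A375 line, lentiviral hPAH R408W; cmpd 24 h, 37 °C, 5% CO2, 0.5% DMSO; then 20 μM sepiapterin + 800 μM 13C9,15N-Phe, 4 h; media extracted in 80% MeCN; 13C-Tyr by LC-MS; AC50 from 10-pt curves.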

AC50 [nM]	Compound
≤ 500	Cc1ccc2oc([C@H]3c4nc[nH]c4CCN3C(=O)c3ocnc3C(F)F)nc2c1 [Example 138, (R)-(4-(difluoromethyl)oxazol-5-yl)(4-(5-methylbenzo[d]oxazol-2-yl)-6,7-dihydro-1H-imidazo[4,5-c]pyridin-5(4H)-yl)methanone]
1000 to 5000	CC(C)(O)c1nc(C(F)(F)F)c(C(=O)N2CCc3[nH]cnc3[C@@H]2c2nc3ccc(F)cc3o2)o1 [Example 256, (R)-(4-(6-fluorobenzo[d]oxazol-2-yl)-6,7-dihydro-1H-imidazo[4,5-c]pyridin-5(4H)-yl)(2-(2-hydroxypropan-2-yl)-4-(trifluoromethyl)oxazol-5-yl)methanone]
≤ 500	CC(C)(O)c1nc(C(F)F)c(C(=O)N2CCc3[nH]cnc3[C@H]2c2nc3ccc(F)cc3o2)o1 [Example 187, (S)-(4-(difluoromethyl)-2-(2-hydroxypropan-2-yl)oxazol-5-yl)(4-(6-fluorobenzo[d]oxazol-2-yl)-6,7-dihydro-1H-imidazo[4,5-c]pyridin-5(4H)-yl)methanone]
≥ 5000	COCc1ccc2c(C(=O)N3CCc4[nH]cnc4[C@@H]3c3nc4cccc(F)c4o3)cnn2c1 [Example 266, (R)-(4-(7-fluorobenzo[d]oxazol-2-yl)-6,7-dihydro-1H-imidazo[4,5-c]pyridin-5(4H)-yl)(6-(methoxymethyl)pyrazolo[1,5-a]pyridin-3-yl)methanone]
≤ 500	COc1cccc2oc([C@@H]3c4nc[nH]c4CCN3C(=O)c3oc(C(C)(C)O)nc3C(F)F)nc12 [Example 427, (S)-(4-(difluoromethyl)-2-(2-hydroxypropan-2-yl)oxazol-5-yl)(4-(4-methoxybenzo[d]oxazol-2-yl)-6,7-dihydro-1H-imidazo[4,5-c]pyridin-5(4H)-yl)methanone]
500 to 1000	CC(C)(C#N)c1nc(C(F)F)c(C(=O)N2CCc3[nH]cnc3[C@@H]2c2nc3cc(F)ccc3o2)o1 [Example 160, (R)-2-(4-(difluoromethyl)-5-(4-(5-fluorobenzo[d]oxazol-2-yl)-4,5,6,7-tetrahydro-1H-imidazo[4,5-c]pyridine-5-carbonyl)oxazol-2-yl)-2-methylpropanenitrile]
1000 to 5000	Cn1nc(C2CC2)nc1C(=O)N1CCc2[nH]cnc2[C@@H]1c1nc2cccc(F)c2o1 [Example 498, (R)-(3-cyclopropyl-1-methyl-1H-1,2,4-triazol-5-yl)(4-(7-fluorobenzo[d]oxazol-2-yl)-6,7-dihydro-1H-imidazo[4,5-c]pyridin-5(4H)-yl)methanone]
≤ 500	(R)-(3-(difluoromethyl)-1-methyl-1H-1,2,4-triazol-5-yl)(4-(4-methylbenzo[d]oxazol-2-yl)-6,7-dihydro-1H-imidazo[4,5-c]pyridin-5(4H)-yl)methanone [Example 814]
≤ 500	O=C(c1ocnc1C(F)F)N1CCc2[nH]cnc2[C@@H]1c1nc2c(Cl)cccc2o1 [Example 438, [(4R)-4-(4-chloro-1,3-benzoxazol-2-yl)-1,4,6,7-tetrahydroimidazo[4,5-c]pyridin-5-yl]-[4-(difluoromethyl)oxazol-5-yl]methanone]
≤ 500	CC(C)(O)c1nc(C(F)F)c(C(=O)N2CCc3[nH]cnc3[C@H]2c2nc3cc(F)ccc3o2)o1 (single isomer, unassigned) [Example 107]
500 to 1000	Cn1cc(-c2nc(C(F)F)c(C(=O)N3CCc4[nH]cnc4[C@@H]3c3nc4cccc(F)c4o3)o2)cn1 [Example 635, (R)-(4-(difluoromethyl)-2-(1-methyl-1H-pyrazol-4-yl)oxazol-5-yl)(4-(7-fluorobenzo[d]oxazol-2-yl)-6,7-dihydro-1H-imidazo[4,5-c]pyridin-5(4H)-yl)methanone]
≤ 500	O=C(c1oc(-c2ccccn2)nc1C(F)(F)F)N1CCc2[nH]cnc2[C@H]1c1nc2cc(F)ccc2o1 [Example 49, (S)-(4-(5-fluorobenzo[d]oxazol-2-yl)-6,7-dihydro-1H-imidazo[4,5-c]pyridin-5(4H)-yl)(2-(pyridin-2-yl)-4-(trifluoromethyl)oxazol-5-yl)methanone]
1000 to 5000	CC(C)(O)c1nc(C(F)F)c(C(=O)N2CCc3[nH]cnc3[C@@H]2c2nc3cc(Cl)ccc3o2)o1 [Example 376, (R)-(4-(5-chlorobenzo[d]oxazol-2-yl)-6,7-dihydro-1H-imidazo[4,5-c]pyridin-5(4H)-yl)(4-(difluoromethyl)-2-(2-hydroxypropan-2-yl)oxazol-5-yl)methanone]
1000 to 5000	COc1cccc2oc([C@@H]3c4nc[nH]c4CCN3C(=O)c3nc(C)nn3C)nc12 [Example 827, (S)-(1,3-dimethyl-1H-1,2,4-triazol-5-yl)(4-(4-methoxybenzo[d]oxazol-2-yl)-6,7-dihydro-1H-imidazo[4,5-c]pyridin-5(4H)-yl)methanone]
1000 to 5000	Cn1ccc(-c2nnc(C(=O)N3CCc4[nH]cnc4[C@H]3c3nc4cc(F)ccc4o3)o2)n1 [Example 106, (S)-(4-(5-fluorobenzo[d]oxazol-2-yl)-6,7-dihydro-1H-imidazo[4,5-c]pyridin-5(4H)-yl)(5-(1-methyl-1H-pyrazol-3-yl)-1,3,4-oxadiazol-2-yl)methanone]
500 to 1000	COc1ccc2oc([C@@H]3c4nc[nH]c4CCN3C(=O)c3nnc(-c4ccccn4)o3)nc2c1 [Example 555, (S)-(4-(5-methoxybenzo[d]oxazol-2-yl)-6,7-dihydro-1H-imidazo[4,5-c]pyridin-5(4H)-yl)(5-(pyridin-2-yl)-1,3,4-oxadiazol-2-yl)methanone]
≤ 500	O=C(c1oc(-c2ccccn2)nc1C(F)(F)F)N1CCc2[nH]cnc2[C@H]1c1nc2cccc(F)c2o1 [Example 638, (S)-(4-(7-fluorobenzo[d]oxazol-2-yl)-6,7-dihydro-1H-imidazo[4,5-c]pyridin-5(4H)-yl)(2-(pyridin-2-yl)-4-(trifluoromethyl)oxazol-5-yl)methanone]
≥ 5000	Cc1cccc2oc([C@H]3c4nc[nH]c4CCN3C(=O)c3cnn4cc(N5CCC(O)CC5)ccc34)nc12 [Example 702, (R)-(6-(4-hydroxypiperidin-1-yl)pyrazolo[1,5-a]pyridin-3-yl)(4-(4-methylbenzo[d]oxazol-2-yl)-6,7-dihydro-1H-imidazo[4,5-c]pyridin-5(4H)-yl)methanone]
≤ 500	Cc1ccc2nc([C@@H]3c4nc[nH]c4CCN3C(=O)c3ocnc3C(F)F)oc2c1 [Example 884, (S)-(4-(difluoromethyl)oxazol-5-yl)(4-(6-methylbenzo[d]oxazol-2-yl)-6,7-dihydro-1H-imidazo[4,5-c]pyridin-5(4H)-yl)methanone]
1000 to 5000	CC(F)(F)c1ncc(C(=O)N2CCc3[nH]cnc3[C@@H]2c2nc3cc(F)ccc3o2)s1 [Example 36, (R)-(2-(1,1-difluoroethyl)thiazol-5-yl)(4-(5-fluorobenzo[d]oxazol-2-yl)-6,7-dihydro-1H-imidazo[4,5-c]pyridin-5(4H)-yl)methanone]
≤ 500	CC(C)(O)c1nc(C(F)F)c(C(=O)N2CCc3[nH]cnc3[C@H]2c2nc3c(C(F)(F)F)cccc3o2)o1 [Example 463, (S)-(4-(difluoromethyl)-2-(2-hydroxypropan-2-yl)oxazol-5-yl)(4-(4-(trifluoromethyl)benzo[d]oxazol-2-yl)-6,7-dihydro-1H-imidazo[4,5-c]pyridin-5(4H)-yl)methanone]
1000 to 5000	Cc1nc(-c2ccn(C)n2)oc1C(=O)N1CCc2[nH]cnc2[C@H]1c1nc2cc(F)ccc2o1 [Example 825, (S)-(4-(5-fluorobenzo[d]oxazol-2-yl)-6,7-dihydro-1H-imidazo[4,5-c]pyridin-5(4H)-yl)(4-methyl-2-(1-methyl-1H-pyrazol-3-yl)oxazol-5-yl)methanone]
500 to 1000	C[C@H](O)c1nc(C(F)F)c(C(=O)N2CCc3[nH]cnc3[C@@H]2c2nc3cccc(F)c3o2)o1 [Example 244, (4-(difluoromethyl)-2-((S)-1-hydroxyethyl)oxazol-5-yl)((R)-4-(7-fluorobenzo[d]oxazol-2-yl)-6,7-dihydro-1H-imidazo[4,5-c]pyridin-5(4H)-yl)methanone]

same assay, conditions: A375 cells expressing R408W PAH; 24 hrs with compound, then 20 μM sepiapterin and 800 μM 13C9,15N-Phenylalanine for 4 hours; 13C-Tyrosine by LC-MS; average where tested multiple times

AC50 [nM]	Compound
1000 to 5000	Cn1cc(-c2nnc(C(=O)N3CCc4[nH]cnc4C3c3nc4cc(C(F)(F)F)ccc4o3)o2)cn1 (stereo not shown)
≥ 5000	CC(C)(O)c1noc(C(=O)N2CCc3[nH]cnc3C2c2nc3cc(F)ccc3o2)n1 (stereo not shown)
≥ 5000	CC(C)(O)C1CCN(c2ccc3c(C(=O)N4CCc5[nH]cnc5C4c4nc5cc(F)ccc5o4)cnn3c2)CC1 (stereo not shown)
1000 to 5000	Cc1cccc2nc(C3c4nc[nH]c4CCN3C(=O)c3nc(C(C)(C)C)nn3C)oc12 (stereo not shown)
1000 to 5000	O=C(c1cn(-c2ccccn2)nc1Cl)N1CCc2[nH]cnc2C1c1nc2cc(F)ccc2o1 (stereo not shown)
≥ 5000	CN(C)Cc1ccc2c(C(=O)N3CCc4[nH]cnc4C3c3nc4cc(F)ccc4o3)cnn2c1 (stereo not shown)
1000 to 5000	Cn1ncnc1C(=O)N1CCc2[nH]cnc2C1c1nc2ccccc2o1 (stereo not shown)
1000 to 5000	O=C(c1nnc(-c2c[nH]nc2C(F)(F)F)o1)N1CCc2[nH]cnc2C1c1nc2cc(F)ccc2o1 (stereo not shown)
